Common to all, as to test: KinomeScan kinase panel, single concentration 10 µM
Holding throughout (type): binding

Assay [1] has as its target T1, KinomeScan kinase panel (Homo sapiens, UniProt P04049).
T1 construct: purchased DiscoveRx (KinomeScan)
Particulars: read-out: score (%).

Assay [2] addresses T2, KinomeScan kinase panel (Homo sapiens, UniProt P35916).
T2 construct: purchased DiscoveRx (KinomeScan)
Particulars: FLT4, 10 µM; read-out: score (%).

The target in assay [3] is T3, KinomeScan kinase panel (Homo sapiens, UniProt Q00537).
T3 construct: purchased DiscoveRx (KinomeScan)
Particulars: PCTK2, 10 µM; read-out: score (%).

Assay [4] addresses T4, KinomeScan kinase panel (Homo sapiens, UniProt Q96RR4).
T4 construct: purchased DiscoveRx (KinomeScan)
Particulars: CAMKK2, 10 µM; read-out: score (%).

Assay [5] deals with T5, KinomeScan kinase panel (Homo sapiens, UniProt Q99683).
T5 construct: purchased DiscoveRx (KinomeScan)
T5 sequence (Q99683 1-1374): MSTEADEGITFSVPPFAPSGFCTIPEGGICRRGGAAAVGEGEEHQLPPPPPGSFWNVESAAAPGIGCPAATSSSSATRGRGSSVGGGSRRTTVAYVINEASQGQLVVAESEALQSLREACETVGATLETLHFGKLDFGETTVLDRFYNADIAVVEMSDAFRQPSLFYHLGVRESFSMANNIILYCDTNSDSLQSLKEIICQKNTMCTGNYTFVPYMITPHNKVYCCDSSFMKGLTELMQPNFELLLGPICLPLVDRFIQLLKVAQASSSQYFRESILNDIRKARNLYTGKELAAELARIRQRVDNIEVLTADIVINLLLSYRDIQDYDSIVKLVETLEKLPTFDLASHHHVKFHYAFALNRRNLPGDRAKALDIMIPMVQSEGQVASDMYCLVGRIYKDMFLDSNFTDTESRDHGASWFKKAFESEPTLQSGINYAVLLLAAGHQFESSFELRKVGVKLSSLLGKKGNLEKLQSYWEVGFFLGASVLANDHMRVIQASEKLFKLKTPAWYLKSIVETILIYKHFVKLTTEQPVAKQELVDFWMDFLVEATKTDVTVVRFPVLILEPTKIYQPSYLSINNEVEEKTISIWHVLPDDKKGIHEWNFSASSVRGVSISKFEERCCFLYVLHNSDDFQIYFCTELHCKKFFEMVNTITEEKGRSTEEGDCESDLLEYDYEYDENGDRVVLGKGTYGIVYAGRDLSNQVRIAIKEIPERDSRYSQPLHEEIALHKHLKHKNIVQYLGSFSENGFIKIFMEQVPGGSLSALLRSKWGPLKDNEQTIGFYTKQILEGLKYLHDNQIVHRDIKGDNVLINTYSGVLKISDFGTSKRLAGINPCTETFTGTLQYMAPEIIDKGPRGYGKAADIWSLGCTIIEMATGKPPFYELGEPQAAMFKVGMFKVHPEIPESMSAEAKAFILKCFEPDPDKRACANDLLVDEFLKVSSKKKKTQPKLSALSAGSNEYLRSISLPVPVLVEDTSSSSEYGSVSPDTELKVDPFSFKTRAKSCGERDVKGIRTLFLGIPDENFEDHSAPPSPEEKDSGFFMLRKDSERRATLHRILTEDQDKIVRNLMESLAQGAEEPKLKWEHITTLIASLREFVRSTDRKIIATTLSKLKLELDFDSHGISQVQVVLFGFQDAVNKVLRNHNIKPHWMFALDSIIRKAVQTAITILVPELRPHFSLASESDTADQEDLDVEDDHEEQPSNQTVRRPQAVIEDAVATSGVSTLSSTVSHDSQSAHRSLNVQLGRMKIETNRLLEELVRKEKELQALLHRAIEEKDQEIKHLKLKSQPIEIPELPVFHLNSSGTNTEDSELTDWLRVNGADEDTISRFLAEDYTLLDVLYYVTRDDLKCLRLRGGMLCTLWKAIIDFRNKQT
The settings on record: read-out: score (%).

The target of assay [6] is T6, KinomeScan kinase panel (Homo sapiens, UniProt Q9H0K1).
T6 construct: purchased DiscoveRx (KinomeScan)
The settings on record: read-out: score (%).

Assay [7] deals with T7, KinomeScan kinase panel (Homo sapiens, UniProt Q9HCP0).
T7 construct: purchased DiscoveRx (KinomeScan)
The settings on record: CSNK1G1, 10 µM.

Assay [8] deals with T8, KinomeScan kinase panel (Homo sapiens, UniProt Q9NRM7).
T8 construct: purchased DiscoveRx (KinomeScan)
T8 sequence (Q9NRM7 1-1088): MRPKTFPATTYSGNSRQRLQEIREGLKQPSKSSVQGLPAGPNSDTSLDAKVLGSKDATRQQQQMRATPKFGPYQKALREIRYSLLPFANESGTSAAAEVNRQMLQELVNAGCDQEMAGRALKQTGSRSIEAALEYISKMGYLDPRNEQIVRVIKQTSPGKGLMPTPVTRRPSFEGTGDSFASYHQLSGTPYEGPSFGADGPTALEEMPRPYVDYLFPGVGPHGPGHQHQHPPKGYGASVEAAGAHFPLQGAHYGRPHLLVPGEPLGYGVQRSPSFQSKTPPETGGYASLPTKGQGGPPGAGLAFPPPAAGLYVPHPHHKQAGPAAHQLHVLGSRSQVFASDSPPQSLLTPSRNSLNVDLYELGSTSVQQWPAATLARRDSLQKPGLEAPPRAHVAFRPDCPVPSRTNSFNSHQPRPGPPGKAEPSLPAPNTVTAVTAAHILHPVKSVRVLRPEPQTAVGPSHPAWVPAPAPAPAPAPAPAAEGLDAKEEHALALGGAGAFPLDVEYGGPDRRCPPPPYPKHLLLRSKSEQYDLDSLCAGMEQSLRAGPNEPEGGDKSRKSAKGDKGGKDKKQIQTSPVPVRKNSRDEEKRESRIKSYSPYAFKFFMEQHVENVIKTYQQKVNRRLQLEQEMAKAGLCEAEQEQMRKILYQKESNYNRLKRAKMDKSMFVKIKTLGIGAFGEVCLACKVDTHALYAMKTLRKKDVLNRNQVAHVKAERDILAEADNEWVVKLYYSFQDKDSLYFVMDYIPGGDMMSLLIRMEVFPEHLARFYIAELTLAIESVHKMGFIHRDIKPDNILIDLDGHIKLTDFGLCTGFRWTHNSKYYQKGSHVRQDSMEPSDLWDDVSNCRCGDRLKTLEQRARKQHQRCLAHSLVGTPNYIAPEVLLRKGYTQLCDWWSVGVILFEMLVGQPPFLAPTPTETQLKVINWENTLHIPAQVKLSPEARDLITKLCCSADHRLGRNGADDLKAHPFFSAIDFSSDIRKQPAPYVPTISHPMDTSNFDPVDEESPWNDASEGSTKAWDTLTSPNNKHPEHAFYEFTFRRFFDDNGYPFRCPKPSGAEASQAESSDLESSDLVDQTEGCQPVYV
Particulars: LATS2, 10 µM.

Where two headings read alike, the source gives them in different places.

Consider three compounds from paper PMC4457528, “Identification of Novel Small Molecule Inhibitors of Oncogenic RET Kinase” (PLoS ONE, 2015).

T4 sequence (Q96RR4 whole entry): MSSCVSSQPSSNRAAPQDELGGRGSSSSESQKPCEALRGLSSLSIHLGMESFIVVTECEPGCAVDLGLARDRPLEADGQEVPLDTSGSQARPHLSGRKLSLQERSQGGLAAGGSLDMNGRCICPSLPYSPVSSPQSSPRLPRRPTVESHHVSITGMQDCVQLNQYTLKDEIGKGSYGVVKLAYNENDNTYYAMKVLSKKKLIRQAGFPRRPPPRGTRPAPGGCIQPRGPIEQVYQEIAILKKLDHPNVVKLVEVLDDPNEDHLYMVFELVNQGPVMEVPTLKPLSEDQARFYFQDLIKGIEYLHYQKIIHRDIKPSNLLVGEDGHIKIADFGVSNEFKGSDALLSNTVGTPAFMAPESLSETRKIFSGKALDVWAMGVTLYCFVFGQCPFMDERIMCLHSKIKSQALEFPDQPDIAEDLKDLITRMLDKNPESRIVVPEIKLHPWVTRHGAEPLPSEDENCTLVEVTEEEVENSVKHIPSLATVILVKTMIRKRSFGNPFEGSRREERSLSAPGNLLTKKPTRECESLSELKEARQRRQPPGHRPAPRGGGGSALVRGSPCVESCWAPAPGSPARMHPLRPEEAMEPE
T6 sequence (Q9H0K1 whole entry): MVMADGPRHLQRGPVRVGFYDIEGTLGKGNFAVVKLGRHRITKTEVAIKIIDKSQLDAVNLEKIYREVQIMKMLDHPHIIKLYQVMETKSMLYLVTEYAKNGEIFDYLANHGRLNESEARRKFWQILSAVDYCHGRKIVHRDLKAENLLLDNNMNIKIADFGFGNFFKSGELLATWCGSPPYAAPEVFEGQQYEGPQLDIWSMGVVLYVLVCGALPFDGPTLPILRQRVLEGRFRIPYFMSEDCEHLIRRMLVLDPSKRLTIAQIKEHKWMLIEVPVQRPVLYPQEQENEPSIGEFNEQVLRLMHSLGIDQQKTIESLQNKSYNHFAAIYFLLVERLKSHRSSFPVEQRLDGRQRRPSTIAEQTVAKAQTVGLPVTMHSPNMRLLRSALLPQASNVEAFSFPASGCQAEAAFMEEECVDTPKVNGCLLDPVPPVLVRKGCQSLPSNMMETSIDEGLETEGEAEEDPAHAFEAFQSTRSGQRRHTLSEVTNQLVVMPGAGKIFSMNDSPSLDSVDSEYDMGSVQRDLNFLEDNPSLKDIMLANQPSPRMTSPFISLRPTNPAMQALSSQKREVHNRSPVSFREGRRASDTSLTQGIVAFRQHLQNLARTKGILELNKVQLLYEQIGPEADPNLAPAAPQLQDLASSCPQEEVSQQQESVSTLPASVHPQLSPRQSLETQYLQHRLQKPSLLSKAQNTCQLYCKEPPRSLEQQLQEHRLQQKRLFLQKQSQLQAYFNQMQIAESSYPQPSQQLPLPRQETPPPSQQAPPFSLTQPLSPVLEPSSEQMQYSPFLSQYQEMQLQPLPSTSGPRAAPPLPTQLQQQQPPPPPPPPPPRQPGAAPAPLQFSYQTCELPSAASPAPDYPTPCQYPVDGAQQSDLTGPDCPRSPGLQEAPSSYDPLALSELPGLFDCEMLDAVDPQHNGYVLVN
T3 sequence (Q00537 whole entry): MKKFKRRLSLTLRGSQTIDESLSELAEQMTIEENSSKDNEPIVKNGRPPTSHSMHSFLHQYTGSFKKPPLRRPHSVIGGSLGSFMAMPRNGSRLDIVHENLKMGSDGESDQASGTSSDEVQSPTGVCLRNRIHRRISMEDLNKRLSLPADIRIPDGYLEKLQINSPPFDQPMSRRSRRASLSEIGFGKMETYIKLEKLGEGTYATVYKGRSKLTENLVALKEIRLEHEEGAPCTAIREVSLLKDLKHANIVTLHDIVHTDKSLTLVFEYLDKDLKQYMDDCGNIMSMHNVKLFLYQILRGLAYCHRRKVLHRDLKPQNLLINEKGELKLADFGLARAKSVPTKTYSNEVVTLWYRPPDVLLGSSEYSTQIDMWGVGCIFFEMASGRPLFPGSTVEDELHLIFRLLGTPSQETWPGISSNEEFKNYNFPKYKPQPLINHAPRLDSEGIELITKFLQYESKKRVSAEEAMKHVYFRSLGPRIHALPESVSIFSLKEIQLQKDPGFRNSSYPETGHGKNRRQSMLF
T1 sequence (P04049 whole entry): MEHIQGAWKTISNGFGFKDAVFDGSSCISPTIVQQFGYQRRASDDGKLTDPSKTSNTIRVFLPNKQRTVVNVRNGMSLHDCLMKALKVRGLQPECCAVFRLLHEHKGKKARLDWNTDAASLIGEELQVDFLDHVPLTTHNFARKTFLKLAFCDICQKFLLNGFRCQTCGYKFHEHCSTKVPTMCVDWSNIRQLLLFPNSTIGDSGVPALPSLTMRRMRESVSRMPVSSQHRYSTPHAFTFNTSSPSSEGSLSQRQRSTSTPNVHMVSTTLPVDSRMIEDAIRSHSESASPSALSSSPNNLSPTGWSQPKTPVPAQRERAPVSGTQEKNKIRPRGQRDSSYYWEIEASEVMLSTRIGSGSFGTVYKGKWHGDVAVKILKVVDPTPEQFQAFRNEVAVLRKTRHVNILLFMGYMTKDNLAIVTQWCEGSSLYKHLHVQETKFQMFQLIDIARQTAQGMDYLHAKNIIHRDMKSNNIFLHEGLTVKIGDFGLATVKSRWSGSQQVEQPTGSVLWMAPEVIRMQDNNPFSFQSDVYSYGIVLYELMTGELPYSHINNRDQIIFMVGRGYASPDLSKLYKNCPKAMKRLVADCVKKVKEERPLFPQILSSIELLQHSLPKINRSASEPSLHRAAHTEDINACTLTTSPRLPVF
T2 sequence (P35916 25-1363): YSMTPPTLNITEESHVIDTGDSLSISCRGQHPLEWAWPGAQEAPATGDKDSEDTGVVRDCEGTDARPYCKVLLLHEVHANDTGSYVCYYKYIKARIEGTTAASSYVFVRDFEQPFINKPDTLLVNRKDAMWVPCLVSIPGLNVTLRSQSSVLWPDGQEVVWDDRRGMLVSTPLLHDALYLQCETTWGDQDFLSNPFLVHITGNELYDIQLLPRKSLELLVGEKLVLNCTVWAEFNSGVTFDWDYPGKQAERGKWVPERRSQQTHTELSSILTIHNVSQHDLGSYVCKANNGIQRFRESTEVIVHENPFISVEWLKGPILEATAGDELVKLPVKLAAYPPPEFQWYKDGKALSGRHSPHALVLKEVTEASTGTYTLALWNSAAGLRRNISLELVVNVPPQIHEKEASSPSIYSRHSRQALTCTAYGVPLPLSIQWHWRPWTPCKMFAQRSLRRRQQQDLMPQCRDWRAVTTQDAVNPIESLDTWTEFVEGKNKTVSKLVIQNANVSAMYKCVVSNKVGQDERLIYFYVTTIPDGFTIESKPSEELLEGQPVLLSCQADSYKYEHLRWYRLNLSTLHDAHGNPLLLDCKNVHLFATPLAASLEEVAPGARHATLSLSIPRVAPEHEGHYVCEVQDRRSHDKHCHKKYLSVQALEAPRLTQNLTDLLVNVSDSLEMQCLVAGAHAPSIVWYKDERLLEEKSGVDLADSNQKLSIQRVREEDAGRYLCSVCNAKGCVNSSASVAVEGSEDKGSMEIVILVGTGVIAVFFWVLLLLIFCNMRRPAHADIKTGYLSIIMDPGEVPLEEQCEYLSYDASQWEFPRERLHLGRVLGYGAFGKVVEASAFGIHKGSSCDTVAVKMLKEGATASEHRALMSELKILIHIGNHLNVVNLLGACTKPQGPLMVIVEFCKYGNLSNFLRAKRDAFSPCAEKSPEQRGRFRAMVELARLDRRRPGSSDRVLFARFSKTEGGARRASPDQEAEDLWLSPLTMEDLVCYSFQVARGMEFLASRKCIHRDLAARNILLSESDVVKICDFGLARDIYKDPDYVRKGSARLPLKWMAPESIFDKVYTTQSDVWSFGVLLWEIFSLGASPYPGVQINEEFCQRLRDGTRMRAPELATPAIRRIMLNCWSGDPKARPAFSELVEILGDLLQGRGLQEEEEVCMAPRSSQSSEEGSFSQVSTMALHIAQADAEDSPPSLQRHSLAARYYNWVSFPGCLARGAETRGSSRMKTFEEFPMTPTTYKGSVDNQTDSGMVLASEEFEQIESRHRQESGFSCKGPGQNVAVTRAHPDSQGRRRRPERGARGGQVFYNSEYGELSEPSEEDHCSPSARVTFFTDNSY
T7 sequence (Q9HCP0 whole entry): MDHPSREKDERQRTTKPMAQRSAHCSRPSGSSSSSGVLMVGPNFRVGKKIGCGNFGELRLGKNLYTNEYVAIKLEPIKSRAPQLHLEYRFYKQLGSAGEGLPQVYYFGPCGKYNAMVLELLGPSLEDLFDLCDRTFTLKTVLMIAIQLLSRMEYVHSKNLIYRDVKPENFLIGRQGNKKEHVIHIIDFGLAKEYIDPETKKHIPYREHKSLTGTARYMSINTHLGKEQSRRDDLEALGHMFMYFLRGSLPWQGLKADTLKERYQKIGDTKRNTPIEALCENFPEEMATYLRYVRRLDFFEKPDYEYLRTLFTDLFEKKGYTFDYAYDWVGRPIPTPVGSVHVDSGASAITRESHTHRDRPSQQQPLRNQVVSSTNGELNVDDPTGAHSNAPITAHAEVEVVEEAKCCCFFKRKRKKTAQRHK

Consider `CCN1CCN(Cc2ccc(NC(=O)c3ccc(C)c(NC(=O)c4cncc(-c5cccs5)c4)c3)cc2C(F)(F)F)CC1` [ALW-II-41-27], for which the remaining binding at 10 µM in assay [1] (RAF1, 10 µM) is 1.4%; in assay [2], 0%; in assay [3] it was > 30%; in assay [4] it was > 30%; in assay [5] (ASK1, 10 µM) it was > 30%; in assay [6] (kinase SIK2, 10 µM) it was 13%. Also, the “score (%)” value in assay [7] and in assay [8] was “nb (Hits values higher than 30% were considered negative (no binding: nb))” throughout.
In the case of `CCN1CCN(Cc2ccc(NC(=O)c3ccc(C)c(/C=C/c4cnc5[nH]ccc5c4Cl)c3)cc2C(F)(F)F)CC1` [HG-6-63-01, (E)-3-(2-(4-chloro-1H-pyrrolo[2,3-b]pyridin-5-yl)vinyl)-N-(4-((4-ethylpiperazin-1-yl)methyl)-3-(trifluoromethyl)phenyl)-4-methylbenzamide], the remaining binding at 10 µM in assay [1] (RAF1, 10 µM) is 2.4%; in assay [2], 0.15%; in assay [3], > 30%; in assay [4], > 30%; in assay [5] (MAP3K5, 10 µM), > 30%; in assay [6] (SNF1LK2, 10 µM), 6.4%. Moreover, the “score (%)” value in assay [7] and in assay [8] was “nb (Hits values higher than 30% were considered negative (no binding: nb))” each time.
On to `CCN1CCN(Cc2ccc(NC(=O)c3ccc(C)c(C#Cc4cccnc4)c3)cc2C(F)(F)F)CC1` [XMD15-44], for which the remaining binding at 10 µM in assay [1] (kinase RAF1, 10 µM) is 0.5%; in assay [2] it was 0%; in assay [3] it was 8.2%; in assay [4], 7.8%; in assay [5] (ASK1, 10 µM), > 30%; in assay [6] (kinase SIK2, 10 µM), 21%. For the same compound, the “score (%)” value is listed as “nb (Hits values higher than 30% were considered negative (no binding: nb))” in assay [7] and 7.6% in assay [8].
